Measurements taken from patent US8168628B2, “Conjugated psychotropic drugs and uses thereof” (Ramot at Tel-Aviv University Ltd., priority 2001, dated 2012).
Counter-ions that a name gives are not always drawn. Like-named read-outs stand apart in the source and are kept apart here.

Assays:
Normal rat fibroblasts = experiment: Proliferation test, normal rat fibroblasts; assay type: cell-based; conditions: Fibroblast, linear regression of survival percentage
Method: The primary cultures of rat fibroblasts were obtained from neonatal rats using known procedures.
(§1) Proliferation of cancer and normal cells: Proliferation was measured by neutral red assay or by a fluorometric assay quantitating DNA content. In the neutral red assay, the neutral red is absorbed by lysosomes, thus causing coloring of living cells. Quantitative analysis is performed by colorimetric assay (ELISA reader at 550 nm). In the fluorometric assay, alamar blue is used as a redox indicator. Alamar blue fluorescence was measured at an excitation wavelength of 544 nm and an emission wavelength of […] (FLUOstar BMG Lab Technologies, Offenburg, Germany).
(§2) The cells were sub-cultured and the tested compounds were added thereto in increasing concentrations. The IC50 values were determined by linear regression of the survival percentage of the cells.

PC-3 = experiment: Proliferation test, PC-3 cells; assay type: cell-based; conditions: Homo sapiens, linear regression of survival percentage
Method: (§3) Cell lines: Human prostate carcinoma (PC-3), human colon carcinoma (HT-29), murine melanoma (B-16) and its drug resistant subclone (B-16 MDR), mouse fibroblasts (3T3), myeloid leukemia (HL 60) and its drug resistant subclone (HL 60 MX2), endometrium cell line (MES SA) and its drug resistant subclone (MES DX5), jurkat T lymphoma and monocyte leukemia (U-937), were used in this study.
as §1, §2

B16 MDR = experiment: Proliferation test, B16 MDR cells; assay type: cell-based, murine; conditions: Mus musculus; linear regression of survival percentage
Method: as §3, §1, §2

prolactin = experiment: Prolactin blood level in rats (enzyme immunometric assay); assay type: in vivo, rat; conditions: i.p.; measured at 0, 60 and 120 min after treatment
Description: Prolactin secretion: Typical neuroleptics induce hyperprolactinemia, which is frequently associated with gallactorehea and impaired gonadal and sexual function. The measurement of the circulatory plasma prolactin level was therefore used as a sensitive biochemical marker for the psychotropic activity of the known neuroleptics and the chemical conjugates of the present invention, following intraperitoneal or oral administration thereof. Thus, blood was collected from the punctured eye orbital of rats under ether anesthesia and the assay was performed using Millennia, rat prolactin enzyme immunometric assay-kit (DPC, USA).

rats [1] = experiment: Catalepsy in rats, “wall” test; conditions: i.p.; for induced catalepsy, SAR studies: compared with perphenazine (FIG. 2); for time course of catalepsy: over a period of 7 hours (FIGS. 4a, 4b)
Method: (§4) Animals: Young adult male rats (150-230 grams) were purchased from Harlan (Israel). Animals were divided 2-5/cage and housed in controlled conditions in the animal room for a week prior to the experiments. The experiments were conducted with naive animals, in a double blind procedure. In each experiment various treatment groups (about 5-10 animals each) were tested.
(§5) Catalepsy in rats: The manifestation of the extrapyramidal adverse effects induced by typical neuroleptics was evaluated by the appearance of stereotypic cataleptic behavior in rats following the neuroleptic treatment. Catalepsy was determined by two methods: (i) by measuring the time it took an animal hanging on a cage wall to move its hind legs and reach a flat surface (the “wall” test); and (ii) rats were placed on a flat surface with their anterior limbs leaning on a flat bar (5.5 cm height) resembling a piano playing position. Catalepsy was determined by the time it took an animal to descend and reach the flat surface (the “piano” test). The maximum time of follow up was 2 minutes and these measurements were performed hourly and individually for each animal. These tests provide an assessment of central dopamine (DA) blocking activity and are acceptable criteria for extrapyramidal symptoms induced by anti-psychotic drugs [10].
(§6) A control animals group was treated with the vehicle (lactic acid) only.

B16 = experiment: Proliferation test, B16 melanoma cells; assay type: cell-based, murine; conditions: Mus musculus, B16; linear regression of survival percentage
Method: as §3, §1, §2

HT-29 = experiment: Proliferation test, HT-29 cells; assay type: cell-based; conditions: Homo sapiens, linear regression of survival percentage
Method: as §3, §1, §2

HL 60 = experiment: Proliferation test, HL 60 cells; assay type: cell-based; conditions: Homo sapiens, linear regression of survival percentage
Method: as §3, §1, §2

HL 60 MX2 (MDR) = experiment: Proliferation test, HL 60 MX2 (MDR) cells; assay type: cell-based; conditions: Homo sapiens, HL60/MX2; linear regression of survival percentage
Method: as §3, §1, §2

3T3 = experiment: Proliferation test, 3T3 fibroblasts; assay type: cell-based; conditions: Mus musculus, NIH3T3; linear regression of survival percentage
Method: as §3, §1, §2

MES SA = experiment: Proliferation test, MES SA cells; assay type: cell-based; conditions: Homo sapiens, linear regression of survival percentage
Method: as §3, §1, §2

MES SA DX5 (MDR) = experiment: Proliferation test, MES SA DX5 (MDR) cells; assay type: cell-based; conditions: Homo sapiens, linear regression of survival percentage
Method: as §3, §1, §2

U-937 = experiment: Proliferation test, U-937 cells; assay type: cell-based; conditions: Homo sapiens, linear regression of survival percentage
Method: as §3, §1, §2

Jurkat T lymphoma cells = experiment: Proliferation / viability test, Jurkat T lymphoma cells; assay type: cell-based; conditions: Homo sapiens, linear regression of survival percentage, read-out: IC50, JURKAT
Method: as §3, §1, §2

rats [2] = experiment: Behavioral criteria: sedation and mobility score in rats; conditions: i.p., 5 mg/kg perphenazine, 7.5 mg/kg fluphenazine or equimolar conjugate, score 0-3
Method: The effect of the administration of the tested compound on animals behavior was measured by evaluating the degree of animal sedation and mobility following the treatment described hereinabove, using a score of from 0 to 3. A score of 0 represents active and mobile animals, 1 represents calm and mobile animals, 2 represents calm and immobile animals and 3 represents completely ataxic and non-alert animals.

[3] = Stability upon prolonged storage (NMR); assay type: physicochemical; conditions: about 3 months storage; NMR spectroscopy
[4] = test system: normal and transformed cells; experiment: Proliferation tests, summary over the tested cell lines; assay type: cell-based; conditions: read-out: IC50 range, anti-proliferative activity
Method: as §1, §2

C6 rat glioma cells [5] = experiment: Chemosensitization in C6 rat glioma cells; assay type: cell-based; conditions: Cisplatin 5-50 μM, neutral red (FIG. 17)
Method: Chemosensitization: The chemosensitizing effect of perphenazine and its chemical conjugate AN 168 was measured in vitro. Various concentrations of perphenazine or AN 168 were co-administered together with a chemotherapeutic agent to either C6 rat glioma cells or to Jurkat T lymphoma cells. Cells viability and/or DNA fragmentation following treatment with either the chemotherapeutic agent, perphenazine, AN 168, a combination of the chemotherapeutic agent and perphenazine or a combination of a chemotherapeutic agent with AN 168 were measured as described hereinabove.

C6 rat glioma cells [6] = experiment: DNA fragmentation in C6 rat glioma cells (propidium iodide flow cytometry); assay type: cell-based; conditions: Cisplatin 30 μM; perphenazine 25 and 50 μM; AN 168 25, 50 μM (FIG. 18)
Method: Apoptosis and DNA fragmentation: Fragmentation of cell nuclei was studied by flow cytometric analysis of propidium iodide-stained cells. This analysis was performed using a FACScan (Becton Dickinson, Mountain View, Calif.) equipped with an argon ion laser adjusted to an excitation wavelength of 480 nm and with a Doublet Discrimination Module (DDM). Lysis II (Becton Dickinson) software was used for data acquisition. Apoptotic nuclear changes were evaluated according to the criteria of Nicolletti et al..
The DNA fragmentation was determined by the propidium iodide flow cytometric method described hereinabove.

rats [7] = conditions: male, rat, in vivo, ip
Method: as §4, §5, §6

rats [8] = experiment: D-Amphetamine-induced hyperactivity in rats; assay type: in vivo, rat; conditions: GABA alone, 5 mg/kg i.p. (FIGS. 22-25)
Method: D-Amphetamine-induced hyperactivity in rats: The efficacy of the chemical conjugates of the present invention was studied using the D-amphetamine-induced hyperactivity and motility model, which is known as one of the most established animal models for schizophrenia.
Naïve Wistar male rats were placed in individual boxes. In each experiment 4 rats were studied. Perphenazine or equimolar doses of its chemical conjugate AN-168 were administered intraperitoneally (ip) to the rats 30 minutes prior to intraperitoneal administration of amphetamine (2.5 mg/kg), or 90 minutes prior to oral administration of amphetamine (2.5 mg/kg). The animals locomotor activity was assessed using two parameters: climbing attempts of the animal on the barrel walls (as big movements) and head movement of the animal (as small movements). Assessment was recorded every 15 minutes for two hours. Each animal was tested at each time point for 120 seconds.
The climbing behavior of the rats in each group was measured as described hereinabove.

[9] = 5 mg/kg perphenazine and equimolar conjugates
[10] = 5 mg/kg perphenazine, 7.5 mg/kg fluphenazine, equimolar conjugates, sum 0-420 min, normalized to parent drug (FIG. 3a)

O=C(CCCc1ccccc1)OCCN1CCN(CCCN2c3ccccc3Sc3ccc(Cl)cc32)CC1 [AN-130, Perphenazine 4-Phenylbutyrate]
IC50 (Normal rat fibroblasts): 0.0419 ± 0.0168 mM
IC50 (PC-3): 52.9 ± 28.7 µM
IC50 (B16 MDR): 0.058 mM
time at which prolactin blood level peaked (prolactin): 60 min
total catalepsy (rats [1]; 5 mg/kg perphenazine and equimolar conjugates, sum of determinations at 0, 60, 120 min (FIG. 1a)): catalepsy was induced
IC50 (B16): 36.5 ± 8.1 µM
IC50 (HT-29): 17.3 ± 3.07 µM

CCC(=O)OCCN1CCN(CCCN2c3ccccc3Sc3ccc(Cl)cc32)CC1 [AN-177, Perphenazine Propionate]
IC50 (HL 60): 15.1 µM
induced catalepsy, SAR studies (rats [1]; [9]): significant reduction of the induced catalepsy
IC50 (HL 60 MX2 (MDR)): 17.6 µM
IC50 (3T3): 24.6 µM
IC50 (HT-29): 25.8 µM

CCCCC(=O)OCCN1CCN(CCCN2c3ccccc3Sc3ccc(Cl)cc32)CC1 [AN-178, Perphenazine Valerate]
induced catalepsy, SAR studies (rats [1]; [9]): significant reduction of the induced catalepsy
IC50 (3T3): 18.6 µM
IC50 (HT-29): 11.5 µM

CCC(=O)OCCN1CCN(CCCN2c3ccccc3Sc3ccc(C(F)(F)F)cc32)CC1 [AN-179, Fluphenazine Propionate]
IC50 (HL 60): 18.2 µM
IC50 (HL 60 MX2 (MDR)): 21.4 µM

CCCC(=O)OCCN1CCN(CCCN2c3ccccc3Sc3ccc(C(F)(F)F)cc32)CC1 [AN-180, Fluphenazine Butyrate]
IC50 (HL 60): 19 µM
IC50 (MES SA): 12 µM
IC50 (MES SA DX5 (MDR)): 12.7 µM
total catalepsy (rats [1]; [10]): reduced catalepsy significantly
time course of catalepsy (rats [1]): lower catalepsy
IC50 (U-937): 12.2 µM
IC50 (HL 60 MX2 (MDR)): 18.8 µM
IC50 (Jurkat T lymphoma cells): 10.4 µM
sedation and mobility score, 30 min (rats [2]): 1
sedation and mobility score, 60 min (rats [2]): 2
sedation and mobility score, 90 min (rats [2]): 3
sedation and mobility score, 120 min (rats [2]): 2
sedation and mobility score, 180 min (rats [2]): 1
sedation and mobility score, 240 min (rats [2]): 1

CCCCC(=O)OCCN1CCN(CCCN2c3ccccc3Sc3ccc(C(F)(F)F)cc32)CC1 [AN-181, Fluphenazine Valerate]
IC50 (HL 60): 14.8 µM
IC50 (HL 60 MX2 (MDR)): 16.7 µM

NCCCC(=O)OCCN1CCN(CCCN2c3ccccc3Sc3ccc(C(F)(F)F)cc32)CC1 [AN-187, fluphenazine 4-Aminobutyrate Trihydrochloride]
stability upon prolonged storage [3]: does not tend to decompose upon a prolonged storage
IC50 (HL 60): 18.6 µM
time at which prolactin blood level peaked (prolactin): 60 min
IC50 (MES SA): 14.4 µM
IC50 (MES SA DX5 (MDR)): 9.47 µM
total catalepsy (rats [1]; [10]): reduced it considerably
catalepsy at the end of the 7-hours period (rats [1]; equimolar to 7.5 mg/kg fluphenazine (FIG. 4b)): abolished at the end of the 7-hours period
time course of catalepsy (rats [1]): lower catalepsy
IC50 (U-937): 18.9 µM
IC50 (HL 60 MX2 (MDR)): 17.1 µM
IC50 (Jurkat T lymphoma cells): 10.3 µM
sedation and mobility score, 30 min (rats [2]): 1
sedation and mobility score, 60 min (rats [2]): 2
sedation and mobility score, 90 min (rats [2]): 2
sedation and mobility score, 120 min (rats [2]): 2
sedation and mobility score, 180 min (rats [2]): 1
sedation and mobility score, 240 min (rats [2]): 1

CCCC(=O)O [BA, butyric acid, reference compound]
IC50 [4]: 1 to 8 mM
IC50 (Normal rat fibroblasts): 5.54 mM
IC50 (B16 MDR): 8 ± 0.546 mM
IC50 (B16): 1300 ± 113 µM
IC50 (HT-29): 7170 ± 2030 µM

N.N.[Cl][Pt][Cl] [Cisplatin, reference compound]
cells viability, Cisplatin alone (C6 rat glioma cells [5]): completely resistant
DNA fragmentation (C6 rat glioma cells [6]): no effect of DNA fragmentation

OCCN1CCN(CCCN2c3ccccc3Sc3ccc(C(F)(F)F)cc32)CC1 [Fluphenazine, fluphenazine, reference compound]
time course of catalepsy (rats [7]): displayed catalepsy during the measured 7 hours
time at which prolactin blood level peaked (prolactin): 60 min

NCCCC(=O)O [GABA, γ-aminobutyric acid, reference compound]
effect on amphetamine-induced climbing and head movement (rats [8]): did not modify the effect of amphetamine

O=C(O)CCCc1ccccc1 [PBA, 4-phenylbutyric acid]
IC50 [4]: 2 to 12 mM
